Data on 47 compounds can be found in US12448373B2, “Azetidinyl-acetamides as CXCR7 inhibitors” (CHEMOCENTRYX, INC., priority 2021, dated 2025).

T1 sequence (P25106 whole entry): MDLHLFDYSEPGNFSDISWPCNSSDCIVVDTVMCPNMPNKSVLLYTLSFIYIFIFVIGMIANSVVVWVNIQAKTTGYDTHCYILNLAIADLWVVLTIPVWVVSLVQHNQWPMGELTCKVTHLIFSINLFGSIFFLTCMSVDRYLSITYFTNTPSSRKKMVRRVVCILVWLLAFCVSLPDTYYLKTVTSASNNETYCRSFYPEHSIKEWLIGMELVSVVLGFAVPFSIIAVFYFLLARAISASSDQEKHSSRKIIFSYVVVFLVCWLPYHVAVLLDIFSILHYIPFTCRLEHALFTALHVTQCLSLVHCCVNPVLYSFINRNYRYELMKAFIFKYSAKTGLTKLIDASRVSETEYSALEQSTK

The assay has as its target T1, CXCR7 (Homo sapiens, UniProt P25106).
T1 construct: expressed in transfected cells; host or cells: CHO cells (CHO-CXCR7), transgenes maintained with Hygromycin B and G418
Put plainly: CXCR7 β-arrestin recruitment assay in CHO-CXCR7 cells (ProLink/EA β-galactosidase complementation), induced by human SDF-1a. It is filed as cell-based. The conditions noted are these: assay buffer, SDF-1a at EC50 concentration. Here is the method:
CXCR7 is fused in frame with a small enzyme donor fragment ProLink and co-expressed in CHO cells stably expressing a fusion protein of β-arrestin and the larger, N-terminal deletion mutant of β-galactosidase (called enzyme acceptor or EA). Activation of the CXCR7 stimulates binding of β-arrestin to the ProLink-tagged CXCR7 and forces complementation of the two enzyme fragments, resulting in the formation of an active β-galactosidase enzyme. The β-galactosidase enzyme activity is measured with a substrate that generates fluorescence.
CHO-CXCR7 cells (0.22×10^6/mL) were cultured in growth medium (Ham's F-12 medium with 10% fetal bovine serum (FBS)), Hygromycin B (200 ug/mL) and G418 (250 ug/mL) were used to maintain the transgenes. The day before the assay, the cells were detached from culture dishes with 0.25% trypsin-EDTA (Corning, Catalog No. 25-053-CI), plated into 96 well plate (2.2×10^5 cells/mL, 100 μL/well) and incubated overnight at 37° C. with 5% CO2. On the day of the assay, cell culture medium was removed and 100 uL of assay buffer (PBS or FBS) was added to each well. 1 μL of compound that were serially diluted in DMSO was added to each well. 5 μL of human SDF-la (Pepro Tech, Catalog No. 300-28A, at EC50 concentration pre-determined on the same day) was then added and mixed to induce CXCR7-mediated β-arrestin recruitment. The plates were incubated for 1.5 hours at 37° C. The assay buffer was removed, 100 μL substrate solution was added and the reaction was carried out at 37° C. for 30 minutes. The substrate solution was prepared by mixing 100 mL Phosphate Buffer (1M, Sigma, Catalog No. P3619-1GA), 100 mL 10% Triton X 100 (Sigma, Catalog No. T8787.), 5 mL MgCl2 (1M, Sigma, Catalog No. M1028), 1.5 mL, β-mercaptoethanol (Gibco, Catalog No. 21985-023.). 3-carboxyumbelliferyl β-D-galactopyranoside (ThermoFisher Scientific, Catalo No. F2905) was added at 0.4 mM right before use. The reaction was then stopped by adding 50 μL of Stop Solution (2.1% w/v Na2CO3) to each well. Fluorescence intensity was measured with a FlexStation 3 microplate reader (Molecular Devices) with the following setting—excitation: 360 nm, emission: 465 nm, manual Gain: 55. IC50 values were calculated with GraphPad Prism using 3 parameter nonlinear regression.
In turn, `Cc1cc(Cl)cc(C(C)(C)NC(=O)CC2(NC(=O)c3cc(-c4ccc(F)cc4F)on3)CN([C@H]3CC[C@](C)(O)CC3)C2)c1` [Example 1.090] returned a half-inhibitory concentration (IC50) of less than 5 nM. `CC(C)(NC(=O)CC1(NC(=O)c2cc(-c3ccc(F)cc3)on2)CN([C@H]2CC[C@](C)(O)CC2)C1)c1ccccc1` [Example 1.091] had an IC50 of 5 to 100 nM. Take `CC(C)(NC(=O)CC1(NC(=O)c2cc(-c3ccc(F)cc3F)on2)CN(C2CCC3(CC2)COC3)C1)c1cc(Cl)cc(Cl)c1` [Example 1.092]: the IC50 lay in the range of 5 to 100 nM.

The compound `CC(C)CN1CC(CC(=O)NC(C)(C)c2cc(Cl)cc(Cl)c2)(NC(=O)c2cc(-c3ccc(F)cc3F)on2)C1` [Example 1.093] displayed an IC50 of 5 to 100 nM. In turn, `CC(C)(NC(=O)CC1(NC(=O)c2cc(-c3ccc(F)cc3F)on2)CN(C2CCCC2)C1)c1ccccn1` [Example 1.094] displayed an IC50 of 5 to 100 nM. With `CC(C)(NC(=O)CC1(NC(=O)c2cc(-c3ccc(F)cc3F)on2)CN(C2CCOCC2)C1)c1cccc(Cl)c1` [Example 1.095], the IC50 is 5 to 100 nM. In the case of `CC(C)(F)CN1CC(CC(=O)NC(C)(C)c2cccc(Cl)c2)(NC(=O)c2cc(-c3ccc(F)cc3F)on2)C1` [Example 1.096], the half-inhibitory concentration (IC50) was in the range of 100 to 1000 nM.

Compound `CC(C)(NC(=O)CC1(NC(=O)c2cc(-c3ccc(F)cc3F)on2)CN([C@H]2CC[C@](C)(O)CC2)C1)c1c[nH]c2ncccc12` [Example 1.097] showed an IC50 of 5 to 100 nM. Consider `C[C@]1(O)CC[C@@H](N2CC(CC(=O)NCc3ccccn3)(NC(=O)c3cc(-c4ccc(F)cc4F)on3)C2)CC1` [Example 1.098], for which the IC50 lay in the range of 1000 to 20000 nM. As to `C[C@]1(O)CC[C@H](N2CC(CC(=O)NCc3ccccn3)(NC(=O)c3cc(-c4ccc(F)cc4F)on3)C2)CC1` [Example 1.099], the IC50 was 1000 to 20000 nM. Turning to `C[C@]1(O)CC[C@H](N2CC(CC(=O)NCc3cccc4[nH]ccc34)(NC(=O)c3cc(-c4ccc(F)cc4F)on3)C2)CC1` [Example 1.100], the IC50 was less than 5 nM. With `CC(C)(NC(=O)CC1(NC(=O)c2cc(-c3ccc(F)cc3F)on2)CN([C@H]2CC[C@](C)(O)CC2)C1)c1ccnc2[nH]ccc12` [Example 1.101], the IC50 was in the range of 5 to 100 nM. As for `CC(C)(NC(=O)CC1(NC(=O)c2cc(-c3ccc(F)cc3F)on2)CN(C2CCC3(CCOCC3)CC2)C1)c1ccccn1` [Example 1.102], the IC50 lay within 100 to 1000 nM.

As to `C[C@]1(O)CC[C@H](N2CC(CC(=O)NC3(c4cccc(Cl)c4)COC3)(NC(=O)c3cc(-c4ccc(F)cc4F)on3)C2)CC1` [Example 1.103], the IC50 is 5 to 100 nM. `CC(C)(F)CN1CC(CC(=O)NC(C)(C)c2ccccn2)(NC(=O)c2cc(-c3ccc(F)cc3F)on2)C1` [Example 1.104]: the IC50 fell in the range of 1000 to 20000 nM. As to `CC1(C)CCC(N2CC(CC(=O)NC(C)(C)c3cc(Cl)cc(Cl)c3)(NC(=O)c3cc(-c4ccc(F)cc4F)on3)C2)CC1` [Example 1.105], the IC50 was less than 5 nM. `Cc1cc(C)nc(C(C)(C)NC(=O)CC2(NC(=O)c3cc(-c4ccc(F)cc4F)on3)CN([C@H]3CC[C@](C)(O)CC3)C2)c1` [Example 1.106] showed a half-inhibitory concentration (IC50) of less than 5 nM.

`CC(C)(NC(=O)CC1(NC(=O)c2cc(-c3ccc(F)cc3F)on2)CN([C@H]2CC[C@@](C)(C(=O)O)CC2)C1)c1ccccn1` [Example 1.107] registered an IC50 of 1000 to 20000 nM. In turn, `CC(C)(NC(=O)CC1(NC(=O)c2cc(-c3ccc(F)cc3F)on2)CN([C@H]2CC[C@](C)(C(=O)O)CC2)C1)c1ccccn1` [Example 1.108] gave an IC50 of 100 to 1000 nM. `C[C@]1(O)CC[C@@H](N2CC(CC(=O)NCc3cccc(Cl)c3)(NC(=O)c3cc(-c4ccc(F)cc4F)on3)C2)CC1` [Example 1.109] had an IC50 of 100 to 1000 nM. Then `C[C@]1(O)CC[C@H](N2CC(CC(=O)NCc3cccc(Cl)c3)(NC(=O)c3cc(-c4ccc(F)cc4F)on3)C2)CC1` [Example 1.110], with 1000 to 20000 nM; and `Cc1cc(C(C)(C)NC(=O)CC2(NC(=O)c3cc(-c4ccc(F)cc4F)on3)CN(C3CCC(C)(O)CC3)C2)cc(C)n1` (centres unmarked) [Example 1.111], with 5 to 100 nM. Next, `Cc1cc(C(C)(C)NC(=O)CC2(NC(=O)c3cc(-c4ccc(F)cc4F)on3)CN([C@H]3CC[C@](C)(O)CC3)C2)cc(C)n1` [Example 1.112]: 5 to 100 nM; `CC(C)(NC(=O)CC1(NC(=O)c2cc(-c3ccc(F)cc3F)on2)CN(CC2CC2)C1)c1cccc(Cl)c1` [Example 1.113]: 5 to 100 nM. Next, `Cc1cc(C(C)(C)NC(=O)CC2(NC(=O)c3cc(-c4ccc(F)cc4F)on3)CN(CC3CC3)C2)ccn1` [Example 1.114]: 5 to 100 nM. In the case of `CC(C)(NC(=O)CC1(NC(=O)c2cc(-c3ccc(F)cc3F)on2)CN([C@H]2CC[C@@](C)(O)CC2)C1)c1cccc2cc[nH]c12` [Example 1.115], the IC50 is less than 5 nM. Next, `CC(C)(NC(=O)CC1(NC(=O)c2cc(-c3ccc(F)cc3F)on2)CN([C@H]2CC[C@](C)(O)CC2)C1)c1cccc2cc[nH]c12` [Example 1.116]: less than 5 nM.

Compound `COc1cccc(C(C)(C)NC(=O)CC2(NC(=O)c3cc(-c4ccc(F)cc4F)on3)CN(CC3CC3)C2)c1` [Example 1.117] returned a 50% inhibitory concentration (IC50) of 100 to 1000 nM. Consider `COc1cc(C)cc(C(C)(C)NC(=O)CC2(NC(=O)c3cc(-c4ccc(F)cc4F)on3)CN([C@H]3CC[C@@](C)(O)CC3)C2)c1` [Example 1.118], for which the IC50 lay in the range of 5 to 100 nM. Then `COc1cc(C)cc(C(C)(C)NC(=O)CC2(NC(=O)c3cc(-c4ccc(F)cc4F)on3)CN([C@H]3CC[C@](C)(O)CC3)C2)c1` [Example 1.119], with 5 to 100 nM. Next, `CC(C)CN1CC(CC(=O)NC(C)(C)c2cccc(Cl)c2)(NC(=O)c2cc(-c3ccc(F)cc3F)on2)C1` [Example 1.120]: 5 to 100 nM; `Cc1cccc(C(C)(C)NC(=O)CC2(NC(=O)c3cc(-c4ccc(F)cc4F)on3)CN([C@H]3CC[C@](C)(O)CC3)C2)n1` [Example 1.121]: less than 5 nM.

In the case of `Cc1cc(C(C)(C)NC(=O)CC2(NC(=O)c3cc(-c4ccc(F)cc4F)on3)CN(CC(C)C)C2)ccn1` [Example 1.122], the IC50 was in the range of 5 to 100 nM. Next, `CC(C)(NC(=O)CC1(NC(=O)c2cc(-c3ccc(F)cc3F)on2)CN([C@H]2CC[C@@](C)(O)CC2)C1)c1cc(F)cc(Cl)c1` [Example 1.123]: less than 5 nM; `CC(C)(NC(=O)CC1(NC(=O)c2cc(-c3ccc(F)cc3F)on2)CN([C@H]2CC[C@](C)(O)CC2)C1)c1cc(F)cc(Cl)c1` [Example 1.124]: less than 5 nM; `Cn1ccc2c(C(C)(C)NC(=O)CC3(NC(=O)c4cc(-c5ccc(F)cc5F)on4)CN([C@H]4CC[C@@](C)(O)CC4)C3)cccc21` [Example 1.125]: 5 to 100 nM. Take `Cn1ccc2c(C(C)(C)NC(=O)CC3(NC(=O)c4cc(-c5ccc(F)cc5F)on4)CN([C@H]4CC[C@](C)(O)CC4)C3)cccc21` [Example 1.126]: the IC50 was in the range of 5 to 100 nM. On to `C[C@]1(O)CC[C@@H](N2CC(CC(=O)NCc3ccccc3)(NC(=O)c3cc(-c4ccc(F)cc4F)on3)C2)CC1` [Example 1.127], for which the IC50 lay within 1000 to 20000 nM. `C[C@]1(O)CC[C@H](N2CC(CC(=O)NCc3ccccc3)(NC(=O)c3cc(-c4ccc(F)cc4F)on3)C2)CC1` [Example 1.128] showed an IC50 of 1000 to 20000 nM. Then `CC(C)CN1CC(CC(=O)NC(C)(C)c2ccccn2)(NC(=O)c2cc(-c3ccc(F)cc3F)on2)C1` [Example 1.129], with 5 to 100 nM; and `CC1(CN2CC(CC(=O)NC(C)(C)c3cccc(C(F)(F)F)n3)(NC(=O)c3cc(-c4ccc(F)cc4F)on3)C2)COC1` [Example 1.130], with 1000 to 20000 nM. On to `Cc1cc(C)nc(C(C)(C)NC(=O)CC2(NC(=O)c3cc(-c4ccc(F)cc4F)on3)CN(CC3(C)COC3)C2)n1` [Example 1.131], for which the IC50 fell in the range of 1000 to 20000 nM. In turn, `CC(C)(NC(=O)CC1(NC(=O)c2cc(-c3ccc(F)cc3F)on2)CN([C@H]2CC[C@@](C)(O)CC2)C1)c1cc(Cl)ccc1F` [Example 1.132] displayed an IC50 of less than 5 nM. Then `CC(C)(NC(=O)CC1(NC(=O)c2cc(-c3ccc(F)cc3F)on2)CN([C@H]2CC[C@](C)(O)CC2)C1)c1cc(Cl)ccc1F` [Example 1.133], with less than 5 nM. `CC(C)(O)CN1CC(CC(=O)NC(C)(C)c2cc(Cl)ccc2F)(NC(=O)c2cc(-c3ccc(F)cc3F)on2)C1` [Example 1.134] had an IC50 of 5 to 100 nM. As to `CC(C)(NC(=O)CC1(NC(=O)c2cc(-c3ccc(F)cc3F)on2)CN(CC2COC2)C1)c1cccc(Cl)c1` [Example 1.135], the concentration for half-maximal inhibition (IC50) was in the range of 100 to 1000 nM.

Consider `Cc1cc(C(C)(C)NC(=O)CC2(NC(=O)c3cc(-c4ccc(F)cc4F)on3)CN(CC3COC3)C2)ccn1` [Example 1.136], for which the IC50 lay in the range of 100 to 1000 nM.
